Test results from article PMC10133546, “Simultaneous determination of multiple components in rat plasma by UHPLC-sMRM for pharmacokinetic studies after oral administration of Qingjin Yiqi Granules” (Frontiers in Pharmacology, 2023).
Where two headings read alike, the source gives them in different places.

Columns and labels:
[1] = Pharmacokinetic study in rat plasma after oral administration of QJYQ (UHPLC-sMRM); type: in vivo, Sprague-Dawley rats; conditions: for AUC(0-inf): read-out: AUC(0-∞); for MRT inf: read-out: MRT (0-∞); for MRT last: read-out: MRT(0-t)
Method: Exion LC AD tandem Blueline 3500 triple quadrupole mass spectrometer (AB SCIEX, Framingham, MA, United States) was used to thirty-three compounds in rat plasma. […] The whole detailed parameters of sMRM were obtained in Supplementary Table S1.
Rat plasma (100 μL) was mixed with 10% formic acid (10 μL) and vortexed for 1 min at room temperature. ISs (10 μL) and methanol/acetonitrile (1/1, v/v) (400 μL) were added and vortexed for 5 min, then centrifuged for 10 min at 14,000 rpm and 4°C. The transported supernatant was condensed to dryness under the flow of nitrogen gas. The dried residue was reconstituted with 70% methanol (100 μL) by vortex-mixing for 5 min and centrifuging at 14,000 rpm for 10 min. Last, 2 μL of the solution were injected into the UHPLC-sMRM system.
The pharmacokinetic study was approved by the Animal Ethics Committee of Tianjin University of Traditional Chinese Medicine (TCM-LAEC2021228). Ten male Sprague-Dawley rats (weight 220–240 g) was kept at the animal center of Tianjin University of Traditional Chinese Medicine (Tianjin, China). […] The sample was transferred right away following a 10 min period of centrifugation at 7000 rpm and 4°C. All plasma samples were frozen and stored at −80°C.
All the pharmacokinetic parameters were calculated using the DAS 1.0 software (Drug and Statistics 1.0, Medical College of Wannan, China). Pharmacokinetic parameters include the maximum drug concentration in plasma (Cmax), the time to achieve maximum drug concentration (Tmax), the area under the plasma concentration-time curve (AUC), elimination half-life (T1/2), and mean residence time (MRT). The pharmacokinetic parameters were computed using the non-compartmental model. All data are expressed as mean ± standard deviation (SD). GraphPad Prism 8.0 (GraphPad Software Inc., La Jolla, CA, United States) software was used to draw the drug-time curve.

[2] = Stability of analytes in rat plasma (auto-sampler, freeze-thaw, room temperature, long-term); conditions: for Autosampler for 24 h Accuracy (%): autosampler 24 h; for Room temperature for 24 h Accuracy (%): room temperature 24 h; for Freeze thaw cycles Accuracy (%): three freeze-thaw cycles
Method: (§1) The stability of analytes in plasma was evaluated by analyzing 4 QC samples (n = 6). The stability was included auto-sampler stability (keeping the sample in auto-sampler for 24 h), three times of freeze-thaw cycles stability (freezing cycle at −80°C, thawing cycle at room temperature), room temperature stability (storing samples at room temperature for 24 h), long-term stability (storing samples at −80°C for 1 month). […] Accompanying curve was established when testing the sample, calculate and compare the ratio of the actual measured concentration to the theoretical concentration, expressed in accuracy and RSD.

[3] = Stability of the working solution (4°C for 1 month); type: physicochemical
Method: as §1

[4] = male, Sprague-Dawley, rat, plasma, po, 3.15 g/kg, rat plasma, oral QJYQ 3.15 g/kg, n = 8, mean ± SD, read-out: Tmax
[5] = male, Sprague-Dawley, rat plasma, oral QJYQ 3.15 g/kg, n = 8, mean ± SD
[6] = male, Sprague-Dawley, rat plasma, oral QJYQ 3.15 g/kg, n = 8, mean ± SD, read-out: AUC(0-t)
[7] = male, Sprague-Dawley, rat plasma, oral QJYQ 3.15 g/kg, n = 8, mean ± SD, read-out: Cmax

**Q.** With COc1c(O)cc(O)c2c(=O)cc(-c3ccccc3)oc12 [wogonin] as the compound, how does the Tmax [1, 4] read?
**A.** 6.29 ± 0.76 h

**Q.** And the MRT ([1]; male, Sprague-Dawley, rat plasma, oral QJYQ 3.15 g/kg, MRT type not specified, read-out: MRT)?
**A.** > 8 h

**Q.** And the half-life [1, 5]?
**A.** 1.91 ± 0.09 h

**Q.** And the AUC(0-t) [1, 6]?
**A.** 288 ± 66.1 ng·h/mL

**Q.** And the AUC(0-inf) [1, 5]?
**A.** 288 ± 66.1 ng·h/mL

**Q.** What about the MRT inf [1, 5] of the same compound?
**A.** 8.27 ± 1.09 h

**Q.** What about the MRT last [1, 5] of the same compound?
**A.** 8.27 ± 1.09 h

**Q.** And the Cmax ([1]; rat plasma, oral QJYQ 3.15 g/kg, n = 8, mean ± SD)?
**A.** 38.13 ± 10.55 ng/mL

**Q.** What about the “Autosampler for 24 h Accuracy (%)” value ([2]; concentration 1.56 ng/mL) of the same compound?
**A.** 82.8%

**Q.** And the “Autosampler for 24 h Accuracy (%)” value ([2]; concentration 12.5 ng/mL)?
**A.** 111.0%

**Q.** What about the “Autosampler for 24 h Accuracy (%)” value ([2]; concentration 100 ng/mL) of the same compound?
**A.** 102.0%

**Q.** And the “Autosampler for 24 h Accuracy (%)” value ([2]; concentration 500 ng/mL)?
**A.** 90.5%

**Q.** And the “Room temperature for 24 h Accuracy (%)” value ([2]; concentration 1.56 ng/mL)?
**A.** 98.0%

**Q.** What about the “Room temperature for 24 h Accuracy (%)” value ([2]; concentration 12.5 ng/mL) of the same compound?
**A.** 94.1%

**Q.** What about the “Room temperature for 24 h Accuracy (%)” value ([2]; concentration 100 ng/mL) of the same compound?
**A.** 89.8%

**Q.** And the “Room temperature for 24 h Accuracy (%)” value ([2]; concentration 500 ng/mL)?
**A.** 106.0%

**Q.** And the “Freeze thaw cycles Accuracy (%)” value ([2]; concentration 1.56 ng/mL)?
**A.** 86.4%

**Q.** What about the “Freeze thaw cycles Accuracy (%)” value ([2]; concentration 12.5 ng/mL) of the same compound?
**A.** 89.6%

**Q.** And the “Freeze thaw cycles Accuracy (%)” value ([2]; concentration 500 ng/mL)?
**A.** 91.8%

**Q.** And the “−80°C for 1month Accuracy (%)” value ([2]; −80°C for 1 month, concentration 1.56 ng/mL)?
**A.** 111.0%

**Q.** What about the “−80°C for 1month Accuracy (%)” value ([2]; −80°C for 1 month, concentration 12.5 ng/mL) of the same compound?
**A.** 85.1%

**Q.** And the “−80°C for 1month Accuracy (%)” value ([2]; −80°C for 1 month, concentration 100 ng/mL)?
**A.** 96.0%

**Q.** What about the “−80°C for 1month Accuracy (%)” value ([2]; −80°C for 1 month, concentration 500 ng/mL) of the same compound?
**A.** 87.4%

**Q.** What about the “Working solution Accuracy (%)” value ([3]; concentration 1.56 ng/mL) of the same compound?
**A.** 98.0%

**Q.** And the “Working solution Accuracy (%)” value ([3]; concentration 12.5 ng/mL)?
**A.** 98.9%

**Q.** What about the “Working solution Accuracy (%)” value ([3]; concentration 100 ng/mL) of the same compound?
**A.** 85.8%

**Q.** And the “Working solution Accuracy (%)” value ([3]; concentration 500 ng/mL)?
**A.** 100.0%

**Q.** Which half-life [1, 5] does the source give for O=C(O)C=Cc1ccc(O)cc1 [p-Coumaric acid] here?
**A.** 1.79 ± 0.38 h

**Q.** What about the AUC(0-t) [1, 6] of the same compound?
**A.** 381 ± 101 ng·h/mL

**Q.** What about the AUC(0-inf) [1, 5] of the same compound?
**A.** 385 ± 126 ng·h/mL

**Q.** What about the Cmax [1, 7] of the same compound?
**A.** 153 ± 33.4 ng/mL

**Q.** And the MRT inf [1, 5]?
**A.** 3.63 ± 1.57 h

**Q.** And the MRT last [1, 5]?
**A.** 3.03 ± 1.01 h

**Q.** What about the “Autosampler for 24 h Accuracy (%)” value ([2]; 1.56 ng/mL) of the same compound?
**A.** 83.2%

**Q.** What about the “Room temperature for 24 h Accuracy (%)” value ([2]; 1.56 ng/mL) of the same compound?
**A.** 82.7%

**Q.** And the “Freeze thaw cycles Accuracy (%)” value ([2]; 1.56 ng/mL)?
**A.** 95.1%

**Q.** And the “−80°C for 1month Accuracy (%)” value ([2]; 1.56 ng/mL, −80°C 1 month)?
**A.** 110.0%

**Q.** And the “Autosampler for 24 h Accuracy (%)” value ([2]; 12.5 ng/mL)?
**A.** 102.0%

**Q.** What about the “Room temperature for 24 h Accuracy (%)” value ([2]; 12.5 ng/mL) of the same compound?
**A.** 96.1%

**Q.** What about the “Freeze thaw cycles Accuracy (%)” value ([2]; 12.5 ng/mL) of the same compound?
**A.** 95.2%

**Q.** And the “−80°C for 1month Accuracy (%)” value ([2]; 12.5 ng/mL, −80°C 1 month)?
**A.** 85.1%

**Q.** And the “Autosampler for 24 h Accuracy (%)” value ([2]; 100 ng/mL)?
**A.** 96.9%

**Q.** And the “Room temperature for 24 h Accuracy (%)” value ([2]; 100 ng/mL)?
**A.** 98.7%

**Q.** And the “Freeze thaw cycles Accuracy (%)” value ([2]; 100 ng/mL)?
**A.** 87.0%

**Q.** What about the “−80°C for 1month Accuracy (%)” value ([2]; 100 ng/mL, −80°C 1 month) of the same compound?
**A.** 115.0%

**Q.** And the “Autosampler for 24 h Accuracy (%)” value ([2]; 500 ng/mL)?
**A.** 115.0%

**Q.** And the “Room temperature for 24 h Accuracy (%)” value ([2]; 500 ng/mL)?
**A.** 97.8%

**Q.** What about the “Freeze thaw cycles Accuracy (%)” value ([2]; 500 ng/mL) of the same compound?
**A.** 88.7%

**Q.** What about the “−80°C for 1month Accuracy (%)” value ([2]; 500 ng/mL, −80°C 1 month) of the same compound?
**A.** 109.0%

**Q.** What about the “Working solution Accuracy (%)” value ([3]; 1.56 ng/mL) of the same compound?
**A.** 81.9%

**Q.** What about the “Working solution Accuracy (%)” value ([3]; 100 ng/mL) of the same compound?
**A.** 95.9%

**Q.** What about the “Working solution Accuracy (%)” value ([3]; 500 ng/mL) of the same compound?
**A.** 92.8%

**Q.** What does the source list for COC(=O)C1=CO[C@@H](O[C@@H]2O[C@H](CO)[C@@H](O)[C@H](O)[C@H]2O)[C@H]2[C@@H]1C(=O)C[C@@H]2C [verbenalin]?
**A.** AUC(0-t) ([1]; rat, in vivo, po, 3.15 g/kg): 618.13 ± 161.10 ng·h/mL; AUC(0-∞) ([1]; rat, in vivo, po, 3.15 g/kg): 669.34 ± 164.70 ng·h/mL; Cmax ([1]; rat, in vivo, po, 3.15 g/kg): 135.83 ± 52.28 ng/mL; MRT (0-∞) ([1]; rat, in vivo, po, 3.15 g/kg): 7.95 ± 4.85 h; MRT(0-t) ([1]; rat, in vivo, po, 3.15 g/kg): 4.85 ± 0.77 h; T1/2 ([1]; rat, in vivo, po, 3.15 g/kg): 8.37 ± 2.80 h; Tmax ([1]; rat, in vivo, po, 3.15 g/kg): 1.37 ± 0.80 h; Autosampler for 24 h Accuracy (%) ([2]; 12.5 ng/mL): 84.9%; Room temperature for 24 h Accuracy (%) ([2]; 12.5 ng/mL): 104.0%; Freeze thaw cycles Accuracy (%) ([2]; 12.5 ng/mL): 93.8%; −80°C for 1month Accuracy (%) ([2]; 12.5 ng/mL, −80°C 1 month): 89.1%; Autosampler for 24 h Accuracy (%) ([2]; 50 ng/mL): 92.5%; Room temperature for 24 h Accuracy (%) ([2]; 50 ng/mL): 88.9%; Autosampler for 24 h Accuracy (%) ([2]; 100 ng/mL): 89.7%; Room temperature for 24 h Accuracy (%) ([2]; 100 ng/mL): 91.2%; Freeze thaw cycles Accuracy (%) ([2]; 100 ng/mL): 87.8%; −80°C for 1month Accuracy (%) ([2]; 100 ng/mL, −80°C 1 month): 95.7%; Autosampler for 24 h Accuracy (%) ([2]; 500 ng/mL): 88.3%; Room temperature for 24 h Accuracy (%) ([2]; 500 ng/mL): 104.0%; Freeze thaw cycles Accuracy (%) ([2]; 500 ng/mL): 88.5%; −80°C for 1month Accuracy (%) ([2]; 500 ng/mL, −80°C 1 month): 104.0%; Working solution Accuracy (%) ([3]; 12.5 ng/mL): 83.3%; Working solution Accuracy (%) ([3]; 50 ng/mL): 89.5%; Working solution Accuracy (%) ([3]; 100 ng/mL): 86.2%; Working solution Accuracy (%) ([3]; 500 ng/mL): 96.4%

**Q.** Which results are given for O=C(O)c1ccc(O)c(O)c1 [protocatechuic acid]?
**A.** Tmax [1, 4]: < 0.5 h; half-life [1, 5]: 2.33 ± 0.52 h; AUC(0-t) [1, 6]: 40.8 ± 10.9 ng·h/mL; AUC(0-inf) [1, 5]: 40.9 ± 17.3 ng·h/mL; Cmax [1, 7]: 6.79 ± 4.35 ng/mL; MRT inf [1, 5]: 5.32 ± 1.53 h; MRT last [1, 5]: 5.3 ± 1.02 h; Autosampler for 24 h Accuracy (%) ([2]; 1.56 ng/mL): 103.0%; Room temperature for 24 h Accuracy (%) ([2]; 1.56 ng/mL): 110.0%; Freeze thaw cycles Accuracy (%) ([2]; 1.56 ng/mL): 103.0%; −80°C for 1month Accuracy (%) ([2]; 1.56 ng/mL, −80°C 1 month): 80.4%; Autosampler for 24 h Accuracy (%) ([2]; 12.5 ng/mL): 86.0%; Room temperature for 24 h Accuracy (%) ([2]; 12.5 ng/mL): 91.0%; −80°C for 1month Accuracy (%) ([2]; 12.5 ng/mL, −80°C 1 month): 114.0%; Autosampler for 24 h Accuracy (%) ([2]; 100 ng/mL): 98.5%; Room temperature for 24 h Accuracy (%) ([2]; 100 ng/mL): 106.0%; Freeze thaw cycles Accuracy (%) ([2]; 100 ng/mL): 90.0%; −80°C for 1month Accuracy (%) ([2]; 100 ng/mL, −80°C 1 month): 100.0%; Autosampler for 24 h Accuracy (%) ([2]; 500 ng/mL): 85.2%; Room temperature for 24 h Accuracy (%) ([2]; 500 ng/mL): 85.3%; Freeze thaw cycles Accuracy (%) ([2]; 500 ng/mL): 89.0%; −80°C for 1month Accuracy (%) ([2]; 500 ng/mL, −80°C 1 month): 91.2%; Working solution Accuracy (%) ([3]; 1.56 ng/mL): 82.3%; Working solution Accuracy (%) ([3]; 12.5 ng/mL): 104.0%; Working solution Accuracy (%) ([3]; 100 ng/mL): 92.6%; Working solution Accuracy (%) ([3]; 500 ng/mL): 88.9%
